# Test results: the supplement of paper PMC10307832
# Assays:
# Assay in all cases: relative viability (nuclei count vs DMSO), 5 days (fraction); higher = more cells survive
# [1] = compound: C1/C(=C\C2=CC=CS2)/C(=O)/C(=C/C3=CC=CS3)/C1 + NC(=O)Nc1cc(-c2cccc(F)c2)sc1C(=O)N[C@H]1CCCNC1 [AZD7762] (partner 0.2 µM)
# Summary of the method: (§1)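 Values are medians from duplicate plates. Each reflects relative viability, defined as the nuclei count of treated wells over that of vehicle wells. Lung cancer cell lines in 1536-well plates were pin-tool dosed one day after seeding with one drug alone or with a fixed anchor-drug dose plus five library-drug doses (not always all listed) in √10 steps, then fixed, stained and imaged at 4× after 5 days.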
# [2] = compound: C1/C(=C\C2=CC=CS2)/C(=O)/C(=C/C3=CC=CS3)/C1 + Nc1nc2[nH]cc(CCc3ccc(C(=O)N[C@@H](CCC(=O)O)C(=O)O)cc3)c2c(=O)[nH]1 [Pemetrexed] (partner 0.2 µM)
# Summary of the method: as §1
# [3] = compound: C[C@]12O[C@H](C[C@]1(O)CO)n1c3ccccc3c3c4c(c5c6ccccc6n2c5c31)CNC4=O [Lestaurtinib] + CC(=O)Nc1cccc(-n2c(=O)n(C3CC3)c(=O)c3c(Nc4ccc(I)cc4F)n(C)c(=O)c(C)c32)c1 [Trametinib] (partner 0.02 µM)
# Summary of the method: as §1
# [4] = compound: C1/C(=C\C2=CC=CS2)/C(=O)/C(=C/C3=CC=CS3)/C1 + Nc1ncn([C@H]2C[C@H](O)[C@@H](CO)O2)c(=O)n1 [Decitabine] (partner 2 µM)
# Summary of the method: as §1
Cell Line,relative viability ([1]; first compound 0.2 µM),relative viability ([1]; first compound 0.6325 µM),relative viability ([1]; first compound 2 µM),relative viability ([1]; first compound 6.325 µM),relative viability ([1]; first compound 20 µM),relative viability ([2]; first compound 0.2 µM),relative viability ([2]; first compound 0.6325 µM),relative viability ([2]; first compound 2 µM),relative viability ([2]; first compound 6.325 µM),relative viability ([2]; first compound 20 µM),relative viability ([3]; first compound 0.005 µM),relative viability ([3]; first compound 0.01581 µM),relative viability ([3]; first compound 0.05 µM),relative viability ([3]; first compound 0.1581 µM),relative viability ([3]; first compound 0.5 µM),relative viability ([4]; first compound 0.2 µM),relative viability ([4]; first compound 0.6325 µM),relative viability ([4]; first compound 2 µM),relative viability ([4]; first compound 6.325 µM),relative viability ([4]; first compound 20 µM)
HCC-827,0.21,0.192,0.245,0.226,0.245,0.262,0.226,0.243,0.248,0.284,0.536,0.527,0.573,0.456,0.458,0.316,0.38,0.377,0.28,0.308
HOP-62,0.661,0.688,0.657,0.385,0.692,0.307,0.316,0.248,0.243,0.342,0.409,0.446,0.389,0.351,0.319,0.211,0.202,0.199,0.221,0.202
LC-2-ad,0.871,0.899,0.871,0.72,0.825,0.272,0.298,0.268,0.25,0.287,0.932,1.02,0.792,0.569,0.505,0.861,0.823,0.797,0.666,0.748
LCLC-97TM1,0.3,0.254,0.259,0.252,0.14,0.175,0.178,0.167,0.165,0.187,,0.196,0.199,0.157,0.226,0.25,0.241,0.219,0.173,0.19
LCLC-103H,0.772,0.742,0.9,0.613,0.783,0.477,0.444,0.447,0.433,0.47,0.717,0.741,0.609,0.592,0.678,0.803,0.747,0.77,0.554,0.742
LK-2,0.548,,0.562,0.408,0.421,0.273,,0.354,0.282,0.276,0.778,0.941,0.718,0.65,0.293,0.341,0.31,0.358,0.33,0.347
LOU-NH91,0.744,0.837,0.834,0.697,0.745,0.331,0.401,0.316,0.37,0.375,0.759,0.749,0.679,0.625,0.548,0.85,0.777,0.781,0.797,0.825
LU99A,0.413,0.295,0.415,0.248,0.29,0.217,0.185,0.172,0.17,0.164,0.55,0.522,0.439,0.231,0.145,0.878,0.969,0.982,0.629,0.866
